Usually IC50 stands for the concentration needed to halve the response being measured. Usually CC50 stands for the concentration that lowers cell viability or growth by half.

One data set has as its system CWR22R. Briefly: cells. Type of data set: cell-based. The following applies: for IC50: Homo sapiens, 22Rv1, CWR22R, read-out: IC50 for inhibition of growth. On the procedure: FIG. 21. Toxicity of PLA1055 to CWR22R cells in vitro depending on time of incubation. PLA1055 was added to CWR22R in full range of concentrations for the periods of time shown on the right. After that drug containing media were changed for drug free and survival of cells was detected at 72 hours after start of treatment using Alamar Blue assay (Promega).
(§1) This example provides a table (below) of the compounds of the present disclosure and their activity towards four different cell lines (i.e., CWR22R, HeLa, PC3, and MDA-MB-231). The IC50 for inhibition of growth is divided into 4 categories: A<1 μM, B 1-5 μM, C 5-20 μM, D>20 μM.
(§2) All compounds were tested for toxicity using 4 cells lines, target cells—CWR22R and non-target cells, Hela, PC3 and MDA-MB-231 (FIGS. 1A-F).
(§3) LC50 data of in vitro 72 hours cytotoxicity assay are included in this table for comparison.
An in vitro experiment was run to detect the concentration of PLA1055 needed to kill all tumor cells in vitro (LC90) during different periods of time (30 minutes-72 hours, FIG. 21)).

The subject of another data set is Hela. The data set is described as follows: Inhibition of growth / toxicity in non-target Hela cells. It is filed as cell-based. The following applies: Homo sapiens, HeLa. On the procedure: as §1, §2
Another data set has as its system PC3. The data set is described as follows: Inhibition of growth / toxicity in non-target PC3 cells. The following applies: Homo sapiens, PC-3. It is filed as cell-based. Here is the method: as §1, §2
The test system of the next data set is MDA-MB-231. Briefly: Inhibition of growth / toxicity in non-target MDA-MB-231 cells. Type of data set: cell-based. The following applies: Homo sapiens. On the procedure:
as §1, §2

The nature of data set [1]: Plasma concentration (PK) after intravenous and intraperitoneal injections. It is filed as in vivo.
Data set [2] is described as follows: Tissue drug concentrations (tumor, liver, plasma) in treated CWR22R tumor-bearing mice. It is filed as in vivo. On the procedure:
(§4) We tested these compounds in an in vivo efficacy experiment using model of CRPC in SCID mice, CWR22R. Two compounds, PLA1079 and 1125, which were synthesized in the amount of 500 mg were tested in full scale experiment with either 5 IV daily injections or 10 IP daily injections. After 5 IP or IV injections intra-tumor concentration of the compounds were measured in few mice from this experiment.
Two other compounds, PLA1148 and 1098 (PK testing in FIGS. 8 and 9) were tested in a small scale efficacy experiment. Upon PK testing of the compound PLA1148 one mouse was injected twice with 10 min interval. However the concentration of the drug in plasma of this mouse was not twice, but >4 times higher than in mice injected once. […] It was decided to utilize this observation in an attempt to get higher plasma and tumor concentration of both compounds. Therefore in the pilot efficacy experiment in the same model of CWR22R cells mice were treated with 2 IP injections with 10 minute interval. Treatment with PLA1098 was carried out for two days. […] However this is so far the highest concentration found in tumor. […]
as §3

A further data set deals with CWR22R tumors. The data set is described as follows: In vivo efficacy, subcutaneous xenografts of CWR22R cells in SCID mice. The following applies: CWR22R in SCID mice; 5 IV daily injections or 10 IP daily injections. On the procedure:
as §4
Two other compounds, PLA1148 and 1098 (PK testing in FIGS. 8 and 9) were tested in a small scale efficacy experiment. Upon PK testing of the compound PLA1148 one mouse was injected twice with 10 min interval. However the concentration of the drug in plasma of this mouse was not twice, but >4 times higher than in mice injected once. […] It was decided to utilize this observation in an attempt to get higher plasma and tumor concentration of both compounds. Therefore in the pilot efficacy experiment in the same model of CWR22R cells mice were treated with 2 IP injections with 10 minute interval. Treatment with PLA1098 was carried out for two days. […] However this is so far the highest concentration found in tumor.
Pilot efficacy experiments were run for compounds: PLA1163, PLA1148 using the same model of subcutaneous xenografts of CWR22R cells in SCID mice (FIGS. 18 and 19).

Data set [3] in a line: Aqueous solubility (pH 7.4). Type of data set: physicochemical.
Data set [4] in a line: Metabolic stability in the presence of mouse liver microsomes. Type of data set: in vitro ADME. The following applies: for metabolic stability, % left: after 30 minute incubation with mouse liver microsome. In general terms: Liver microsomes are vesicles of endoplasmic reticulum, rich in cytochrome P450 enzymes.
The mark [5] stands for this setting: single IV administration of 50 mg/kg (FIG. 20).
[6] abbreviates: classification (Stable/Moderate/Unstable), lines whose second value is in %.
[7] abbreviates: in %, table title: Metabolic stability and solubility, % left after 30 minute incubation with mouse liver microsome.

In the case of `N#Cc1ccc2c(c1)c1c(C(N)=O)cccc1n2CCCF` [Compound 19-2], the IC50 in the data set on CWR22R is less than 1 µM; in the data set on Hela it was greater than 20 µM; in the data set with PC3, greater than 20 µM; in the data set on MDA-MB-231 it was greater than 20 µM.
With `CCCn1c2ccc(Br)cc2c2cc(C(C)=O)ccc21` [Compound 20-1, 1-(6-Bromo-9-propyl-9H-carbazol-3-yl)-ethanone], the half-inhibitory concentration (IC50) was 5 to 20 µM in the data set with CWR22R, greater than 20 µM in the data set with Hela, greater than 20 µM in the data set with PC3 and greater than 20 µM in the data set with MDA-MB-231.
As for `CCCn1c2ccc(Cl)cc2c2cc(C(C)=O)ccc21` [Compound 20-2], the half-inhibitory concentration (IC50) with CWR22R, with Hela, with PC3 and with MDA-MB-231 was greater than 20 µM in each case.
Turning to `CCCn1c2ccc(OC)cc2c2cc(C(C)=O)ccc21` [Compound 21-1, 1-(6-Methoxy-9-propyl-9H-carbazol-3-yl)-ethanone], the IC50 is 5 to 20 µM in the data set on CWR22R, greater than 20 µM in the data set on Hela, greater than 20 µM in the data set with PC3 and greater than 20 µM with MDA-MB-231.
`CCCn1c2ccccc2c2cc(C#N)ccc21` [Compound 22-2]: the IC50 in the data set on CWR22R is less than 1 µM; in the data set on Hela, greater than 20 µM; in the data set with PC3, greater than 20 µM; in the data set on MDA-MB-231, greater than 20 µM.
Regarding `CCCn1c2ccc(C(C)=O)cc2c2cc(C(N)=O)ccc21` [Compound 23-1, 6-Acetyl-9-propyl-9H-carbazole-3-carboxylic acid amide], the IC50 in the data set with CWR22R was 5 to 20 µM; in the data set on Hela, greater than 20 µM; in the data set on PC3 it was greater than 20 µM; in the data set on MDA-MB-231, 5 to 20 µM.
In the case of `CCCn1c2ccc(C(C)=O)cc2c2c(C#N)cccc21` [Compound 25-1, 6-Acetyl-9-propyl-9H-carbazole-4-carbonitrile], the IC50 was 1 to 5 µM in the data set with CWR22R, greater than 20 µM in the data set with Hela, greater than 20 µM with PC3 and greater than 20 µM in the data set with MDA-MB-231.
As for `N#Cc1cnc2c(c1)c1ccccc1n2CCCF` [Compound 25-3], the IC50 in the data set with CWR22R is 1 to 5 µM; with Hela it was greater than 20 µM; with PC3, greater than 20 µM; in the data set on MDA-MB-231 it was greater than 20 µM.
Turning to `N#Cc1ccc2c(c1)c1ccccc1n2CCCF` [Compound 26-1, 9-(3-Fluoropropyl)-9H-carbazole-3-carbonitrile], the IC50 was less than 1 µM in the data set on CWR22R, greater than 20 µM in the data set with Hela, greater than 20 µM in the data set on PC3 and greater than 20 µM in the data set on MDA-MB-231.
Turning to `CCCn1c2ccc(C(C)=O)cc2c2c(O)cccc21` [Compound 27-1, 1-(5-Hydroxy-9-propyl-9H-carbazol-3-yl)-ethanone], the 50% inhibitory concentration (IC50) in the data set on CWR22R, in the data set on Hela, in the data set with PC3 and in the data set on MDA-MB-231 was greater than 20 µM each time.
In the case of `CC(=O)c1ccc2c(c1)c1ccccc1n2CCCF` [PLA1055], in the data set on CWR22R, the CC50 was 0.04 µM. The LC90 with CWR22R (CWR22R, incubation 4-8 hours, survival at 72 hours, Alamar Blue assay) came out at 2.5 µM. In [1] (setting [5]), the “plasma concentration at 8 hours” value is on record as “below 1 uM” and the “time up to which compound was detected in plasma” value is listed as “up to 24 hours”.
With `FCCCn1c2ccccc2c2cc(-c3nnco3)ccc21` [PLA1125], the CC50 in the data set with CWR22R came out at 0.1 µM. In [1] (after IV and IP injections, 50-100 mg/kg), the “plasma concentration time course” value is “fast reduction of concentration during the first hour”. Also, the “bioavailability through IP injection” value in [1] (plasma concentrations similar or even higher after IP than IV, 50-100 mg/kg) was “very high”. Moreover, the “Tumor concentration” value in data set [2] (100 mg/kg, IP/IV) was 7 to 10 nM. In addition, the “intra-tumor concentration relative to LC50% in vitro” value in data set [2] (mouse, in vivo) is on record as “significantly below LC50%”. For the same compound, in the data set on CWR22R tumors, the in vivo efficacy entry is listed as “absence of in vivo efficacy”.
Turning to `O=c1[nH]ccc2c1ccc1c2c2ncccc2n1CCCF` [PLA1181], the “Aqueous Solubility Classification” value in [3] and in data set [3] (pH 7.4) was “Low” throughout.
On to `O=C1COc2c(ccc3c2c2ncccc2n3CCCF)N1` [PLA1183], for which the entries for the “Aqueous Solubility Classification” value in data set [3] and in [3] (pH 7.4) were “Moderate” and “Low”, respectively.
Regarding `O=c1[nH]c2ccc3c(c4ccccc4n3CCCF)c2o1` [PLA1190], in [3] (pH 7.4), the “Aqueous Solubility (pH 7.4)” value was 3.5 μM and the “Aqueous Solubility Classification” value was “Low”. The “metabolic stability, % left” value in data set [4] came out at 70%. Besides, the “Metabolic stability, % left after 30 min with mouse liver microsomes” value (shortened to “Metabolic stability, % left after 30 min”) in data set [4] (setting [6]) is listed as “Stable”. For the same compound, in data set [4] (setting [7]), the “Metabolic stability, % left after 30 min” value is 77%.
In the case of `CC(=O)c1ccc2c(c1)c1c(C(N)=O)cccc1n2CCCF` [PLA1191], in [3] (pH 7.4), the “Aqueous Solubility (pH 7.4)” value was found to be 130 μM and the “Aqueous Solubility Classification” value was “High”. Further, the “Metabolic stability, % left after 30 min” value in data set [4] (setting [6]) is on record as “Moderate”. Besides, in data set [4] (setting [7]), the “Metabolic stability, % left after 30 min” value was 30%.
Take `O=c1c2ccc3c(c2ccn1CCO)c1ccccc1n3CCCF` [PLA1192]: the “Aqueous Solubility (pH 7.4)” value in [3] (pH 7.4) worked out at 15 μM. Moreover, the “Aqueous Solubility Classification” value in [3] (pH 7.4) and in data set [4] (setting [6]) was “Moderate” each time. In addition, the “Metabolic stability, % left after 30 min” value in [4] (setting [7]) stood at 27%.
On to `O=c1c2ccc3c(c2ccn1CCN1CCCC1)c1ccccc1n3CCCF` [PLA1193], for which the “Aqueous Solubility (pH 7.4)” value in [3] (pH 7.4) is recorded as 140 μM. The “Aqueous Solubility Classification” value in data set [3] (pH 7.4) was “High”. In addition, the “Metabolic stability, % left after 30 min” value in data set [4] (setting [6]) is given as “Unstable”; in data set [4] (setting [7]), 3%.
Consider `CN1Cc2c(ccc3c2c2ccccc2n3CCC(F)F)C1=O` [PLA1194], for which, in data set [3] (pH 7.4), the “Aqueous Solubility (pH 7.4)” value turned out to be 18 μM and the “Aqueous Solubility Classification” value is “Moderate”. Besides, the “Aqueous Solubility Classification” value in data set [4] (setting [6]) is listed as “Moderate”. Also, in data set [4] (setting [7]), the “Metabolic stability, % left after 30 min” value amounted to 28%.
As to `N#Cc1cccc2c1c1c3cc[nH]c(=O)c3ccc1n2CCCF` [PLA1195], the “Aqueous Solubility (pH 7.4)” value in [3] (pH 7.4) came to 2.7 μM. Further, the “Aqueous Solubility Classification” value in [3] (pH 7.4) is “Low”. Besides, the “Metabolic stability, % left after 30 min” value is on record as “Moderate” in data set [4] (setting [6]) and 63% in data set [4] (setting [7]).
Regarding `NC(=O)c1cccc2c1c1c3cc[nH]c(=O)c3ccc1n2CCCF` [PLA1196], in data set [3] (pH 7.4), the “Aqueous Solubility (pH 7.4)” value worked out at 26 μM and the “Aqueous Solubility Classification” value is recorded as “Moderate”. In data set [4] (setting [6]), the “Aqueous Solubility Classification” value is “Moderate”. The “Metabolic stability, % left after 30 min” value in [4] (setting [7]) is recorded as 65%.
Consider `O=C1CCc2c1ccc1c2c2c(F)cccc2n1CCCF` [PLA1197], for which, in data set [3] (pH 7.4), the “Aqueous Solubility (pH 7.4)” value is recorded as 4.0 μM and the “Aqueous Solubility Classification” value is “Low”. Further, the “metabolic stability, % left” value in data set [4] is 77%. In addition, the “Metabolic stability, % left after 30 min” value in data set [4] (setting [6]) is given as “Stable”. Moreover, in [4] (setting [7]), the “Metabolic stability, % left after 30 min” value worked out at 73%.
Regarding `CC(=O)c1ccc2c(c1)c1c3c(ccc1n2CCCF)C(=O)CC3` [PLA1198], in data set [3] (pH 7.4), the “Aqueous Solubility (pH 7.4)” value was determined as 2.5 μM and the “Aqueous Solubility Classification” value is on record as “Low”. Moreover, the “Metabolic stability, % left after 30 min” value in [4] (setting [6]) is “Moderate”. For the same compound, the “Metabolic stability, % left after 30 min” value in data set [4] (setting [7]) stood at 46%.
The corresponding values for `O=C1CCc2c1ccc1c2c2cc(Br)ccc2n1CCCF` [PLA1199] are 2.3 μM, “Low”, “Moderate” and 42%.

(Values after patent US20160024083A1, “COMPOUNDS AND METHODS FOR TREATING CANCERS” (HEALTH RESEARCH, INC., priority 2013, published 2016).)
